Assay results taken from PMC7932537, “Quantitative profiling of protease specificity” (PLoS Computational Biology, 2021).

Key:
MMP-9 [1] = assay: Substrate phage display with NGS: relative probability (RP) of P3-P1' tetramer clusters; type: biochemical, human; conditions: MMP9; RP of the substrate's P3-P1' tetramer, substrate phage display with NGS;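 further: ratio of tetramer probability after protease selection to that in naive phage library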
MMP-2 = target: T1, MMP-2 (Homo sapiens, UniProt P08253); assay: K(obs) of individual phage substrates (set of 1369); type: biochemical; conditions: MMP2; individual phage substrate from the set of 1369 peptides; hyphen in the sequence marks the cleavage position
T1 sequence (P08253 110-660): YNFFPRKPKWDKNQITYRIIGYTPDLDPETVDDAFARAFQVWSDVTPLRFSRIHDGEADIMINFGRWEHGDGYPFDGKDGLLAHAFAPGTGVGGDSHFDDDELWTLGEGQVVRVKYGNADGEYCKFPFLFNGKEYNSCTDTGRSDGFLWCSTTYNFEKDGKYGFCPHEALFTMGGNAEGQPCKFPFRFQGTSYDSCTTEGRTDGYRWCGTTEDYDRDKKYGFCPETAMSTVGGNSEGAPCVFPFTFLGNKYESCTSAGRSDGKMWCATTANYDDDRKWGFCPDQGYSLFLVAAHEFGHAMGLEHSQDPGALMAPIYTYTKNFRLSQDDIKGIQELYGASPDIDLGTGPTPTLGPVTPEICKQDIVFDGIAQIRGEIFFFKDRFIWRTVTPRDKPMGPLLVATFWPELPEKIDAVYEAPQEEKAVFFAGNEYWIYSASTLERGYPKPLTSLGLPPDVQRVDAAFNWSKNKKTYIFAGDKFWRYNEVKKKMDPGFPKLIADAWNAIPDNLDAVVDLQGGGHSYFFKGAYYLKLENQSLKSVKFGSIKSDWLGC

MMP-9 [2] = target: MMP-9 (Homo sapiens, UniProt P14780); assay: as above; type: biochemical; conditions: MMP9; individual phage substrate of the set of 1369 peptides; dash in sequence marks cleavage position
Chain of MMP-9 (Homo sapiens, UniProt P14780) (P14780 94-707): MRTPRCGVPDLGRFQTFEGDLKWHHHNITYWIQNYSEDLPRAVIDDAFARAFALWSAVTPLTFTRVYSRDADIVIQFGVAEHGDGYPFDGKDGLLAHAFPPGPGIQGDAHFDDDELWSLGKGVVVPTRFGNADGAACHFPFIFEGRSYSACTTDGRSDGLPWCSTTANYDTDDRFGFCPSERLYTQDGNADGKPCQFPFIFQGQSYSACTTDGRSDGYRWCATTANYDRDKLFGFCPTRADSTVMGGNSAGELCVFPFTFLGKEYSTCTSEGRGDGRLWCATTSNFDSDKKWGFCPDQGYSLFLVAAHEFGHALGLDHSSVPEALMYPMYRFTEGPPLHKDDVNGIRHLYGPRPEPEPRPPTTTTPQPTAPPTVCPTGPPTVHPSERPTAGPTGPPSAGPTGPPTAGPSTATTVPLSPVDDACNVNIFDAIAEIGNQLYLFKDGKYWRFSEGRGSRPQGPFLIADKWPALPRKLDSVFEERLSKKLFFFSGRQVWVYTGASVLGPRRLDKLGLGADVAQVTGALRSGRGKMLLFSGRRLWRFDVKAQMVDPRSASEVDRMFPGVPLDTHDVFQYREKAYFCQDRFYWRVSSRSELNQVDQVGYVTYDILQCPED

Kobs (MMP-2) [M⁻¹ s⁻¹]	Kobs (MMP-9 [2]) [M⁻¹ s⁻¹]	Substance	relative probability (RP) (MMP-9 [1])
12792.1	12792.1	KAPAH-LTASG	44.1453
4613.14	10866.7	KDPKF-LTASG	42.7484
2097.28	12792.1	KFPWN-YTASG	48.0713
12792.1	690.17	KQLAS-LTASG	2.45
12792.1	912.511	KRLAF-LTASG	0.6348
12792.1	12792.1	KSPRP-YTASG	47.6856
7386.83	27.918	KYHAW-MTASG	0.08727
12792.1	10866.7	LIPAW-LTASG	46.2228
12792.1	12792.1	LIPTS-LTASG	31.9505
12792.1	10866.7	LPPLG-FTASG	44.5202
12792.1	1870.4	LQIGH-LTASG	14.7862
12792.1	912.511	LQLAL-YTASG	1.077
7015.91	0	MALSS-LTASG	4.987
12792.1	951.362	MGLAN-LTASG	11.5381
4335.13	12792.1	MGPWG-MTASG	49.8335
4082.43	113.394	MPMGR-LTASG	2.466
12792.1	56.119	PSLGQ-LTASG	2.507
12792.1	585.336	PTLQY-LTASG	2.48
12792.1	12792.1	QPPHA-FTASG	39.4048
2038.8	6688.74	QRWFA-LTASG	14.7831
12792.1	726.013	RKLAF-LTASG	0.6348
12792.1	12792.1	RLPIN-LTASG	44.8884
1816.46	6688.74	RLPKL-LTASG	35.7561

The next lines start with the substance.

Substance	Kobs (MMP-2) [M⁻¹ s⁻¹]	Kobs (MMP-9 [2]) [M⁻¹ s⁻¹]	relative probability (RP) (MMP-9 [1])
ILVWN-YTASG	4922.1	12792.1	30.7196
IMHRA-LTASG	12792.1	9740.44	18.7073
KFPAS-LTASG	12792.1	12792.1	46.2982
KGPSG-LTASG	12792.1	10866.7	47.388
KHPYK-YTASG	1816.46	12792.1	33.5853
KIPSA-LTASG	12792.1	9740.44	47.6113
KMPST-LTASG	12792.1	6396.07	36.3405
KRVYL-LTASG	484.315	2687.73	2.817
KSISN-WTASG	10866.7	84.609	0.06259
KSPTG-LTASG	10866.7	8321.48	39.8897
KVLSA-VTASG	12792.1	12792.1	0.4242
LAPRY-WTASG	12792.1	12792.1	27.5973
LGPSH-YTASG	12792.1	12792.1	38.4805
LKVMN-YTASG	3637.04	12792.1	29.3662
LVVRA-HTASG	4082.43	5461.43	18.814
MFVRK-LTASG	10866.7	4763.33	0
MGPWF-MTASG	0	9740.44	35.6409
MSLAT-LTASG	12792.1	0	0.7406
MSPKG-VTASG	12792.1	12792.1	38.7703
MSPRK-FTASG	12792.1	12792.1	2.647
MWVLS-LTASG	12792.1	8941.32	27.5596
NAPNA-LTASG	12792.1	12792.1	41.7392
NGPYN-LTASG	5461.43	12792.1	49.1716
NIPTR-LTASG	12792.1	1327.88	15.5872

Substance	Kobs (MMP-2) [M⁻¹ s⁻¹]	Kobs (MMP-9 [2]) [M⁻¹ s⁻¹]	relative probability (RP) (MMP-9 [1])
NPPSH-LTASG	12792.1	12792.1	43.8368
NRPSW-VTASG	9740.44	12792.1	29.0809
NSPMS-LTASG	12792.1	12792.1	47.1282
NSPSD-LTASG	12792.1	9740.44	38.1321
PCPTG-LTASG	8321.48	3253.29	39.8897
PKLAA-ITASG	12792.1	0	1.188
PKPAR-LTASG	12792.1	12792.1	40.1634
PQMGS-LTASG	12792.1	201.585	3.398
PSLAE-LTASG	8941.32	654.784	0.4438
PTPRS-YTASG	7386.83	12792.1	44.546
PTWRG-LTASG	5269.78	12792.1	37.3667
QMPLQ-ITASG	8941.32	6131.32	44.6329
QRPMD-LTASG	12792.1	12792.1	44.1549
QRVAA-VTASG	4082.43	0	0.4709
QRVRG-VTASG	1327.88	619.843	13.8249
QVPRR-LTASG	12792.1	10866.7	2.666
RAPLP-VTASG	12792.1	12792.1	40.8342
RAPVA-FTASG	12792.1	12792.1	39.0112
RDLGF-LTASG	12792.1	0	3.437
RDMSY-LTASG	4335.13	0	0.7522
RFPLK-VTASG	0	3438.54	22.8859
RGPSS-YTASG	12792.1	12792.1	41.6306
RHPSH-FTASG	12792.1	6688.74	26.7767
RLPYP-LTASG	12792.1	12792.1	48.6636
